Assay results published in patent US4877746A, “Methods of carrying out assays for lipoproteins and apolipoproteins” (Pharmacia AB, priority 1985, dated 1989).
Structures can show the parent of a compound that is named as a salt.

Assays:
apo(a) = experiment: Immunoassay (sandwich, mouse antiapo(a) 125I) of apo(a) in serum after pretreatment at acidic and alkaline pH; format: binding; conditions: for apo(a) concentration read off after acidic pretreatment: acidic pH, 20 h; for apo(a) concentration read off after acidic pretreatment / apo(a) concentration read off after alkaline pretreatment: 1:1 with serum, RT; for apo(a) concentration read off after alkaline pretreatment: alkaline pH
Method: (a) Alkaline pH. Equal volumes of serum and 0.13 M NaOH were mixed and incubated at room temperature (=RT) for 2 hours, whereupon phosphate buffer I was added up to an 18-fold dilution of the sample.
(b) Acidic pH. Equal volumes of serum and 0.2 M HCl were mixed and incubated at RT for 20 hours, whereupon phosphate buffer I was added up to an 18-fold dilution of the sample.
(c) Alkaline buffer system. Equal volumes of serum and 0.2 M trisodium phosphate were mixed and incubated at RT for 1 hour, whereupon phosphate buffer I was added up to an 18-fold dilution of the sample.
(§1) 50 μl from the reaction mixture of step 1 was diluted according to the dilution scheme 1/18-1/54-1/162-[…]-1/1458-1/4374. Each dilution was mixed with 50 μl of mouse antiapo(a) ^125 I and incubated for 1 hour at RT, whereupon 50 μl of goat antiapo(a) was added. The reaction mixture was kept standing for 0.5 hours at RT. This was followed by precipitation of the resultant complex with the aid of solid-phase-bound anti-antibodies (2 ml Decanting Suspension, 0.5 hr and RT). The suspension was centrifuged, the supernatant then being removed by decantation and discarded.
In separation experiments goat antiapo(a) was replaced with sheep antiapo(a) and monoclonal antiapo(a). These antibodies were tested in soluble as well as in solid-phase-bound form. Decanting suspension was excluded when solid-phase-bound antiapo(a)s were used.

Lp(a) = experiment: Sandwich immunoassay (method 1.2) of serum after prior art delipidating pretreatment, tracer uptake; format: binding
Method: as §1
Equal volumes of serum and pretreating solution were mixed and incubated for 2-16 hours, whereupon the sample was diluted 20-fold with phosphate buffer I. The testing method according to 1.2 was then applied to the reaction solutions. […]
The results are presented as % binding of total amount of tracer added

[1] = dilution 1/20, first concentration: SDS 0.5%, urea 4 M, guanidine HCl 2 M, Triton 2%, Renex 1%, lipase 500 U/l
[2] = dilution 1/20, second concentration: SDS 2.5%, urea 6 M, guanidine HCl 6 M, Triton 10%, Renex 5%, lipase 100 U/l
[3] = dilution 1/60, first concentration: SDS 0.5%, urea 4 M, guanidine HCl 2 M, Triton 2%, Renex 1%, lipase 500 U/l
[4] = dilution 1/60, second concentration: SDS 2.5%, urea 6 M, guanidine HCl 6 M, Triton 10%, Renex 5%, lipase 100 U/l
[5] = dilution 1/180, first concentration: SDS 0.5%, urea 4 M, guanidine HCl 2 M, Triton 2%, Renex 1%, lipase 500 U/l
[6] = dilution 1/180, second concentration: SDS 2.5%, urea 6 M, guanidine HCl 6 M, Triton 10%, Renex 5%, lipase 100 U/l
[7] = dilution 1/540, first concentration: SDS 0.5%, urea 4 M, guanidine HCl 2 M, Triton 2%, Renex 1%, lipase 500 U/l
[8] = dilution 1/540, second concentration: SDS 2.5%, urea 6 M, guanidine HCl 6 M, Triton 10%, Renex 5%, lipase 100 U/l

% binding of total amount of tracer added (uptake) (Lp(a); [1]) [%]	% binding of total amount of tracer added (uptake) (Lp(a); [2]) [%]	% binding of total amount of tracer added (uptake) (Lp(a); [3]) [%]	% binding of total amount of tracer added (uptake) (Lp(a); [4]) [%]	% binding of total amount of tracer added (uptake) (Lp(a); [5]) [%]	% binding of total amount of tracer added (uptake) (Lp(a); [6]) [%]	% binding of total amount of tracer added (uptake) (Lp(a); [7]) [%]	% binding of total amount of tracer added (uptake) (Lp(a); [8]) [%]	SMILES	apo(a) concentration read off after acidic pretreatment (apo(a); 0.2 M pretreating solution) [U/l]	further results
								Cl [HCl, hydrochloric acid]	41.0	
								O=C(O)CC(O)(CC(=O)O)C(=O)O [citric acid]	25.2	
10.0	10.7	5.6	6.3	3.6	4.1	3.1	3.3	N=C(N)N [GUANIDINE HCl, Guanidine - HCl]		
								O=P(O)(O)O [H3 PO4]	28.4	
								[Na+].[OH-] [NaOH, sodium hydroxide]		uptake on increased treatment time (apo(a); 0.13 M NaOH, longer treatment time, given dilution): the uptake was lowered; apo(a) concentration read off after alkaline pretreatment (apo(a); 0.13 M pretreating solution, 2 h): 333 U/l; effectiveness of pretreatment (apo(a); sodium hydroxide solution versus hydrochloric acid solution): far more effective than a hydrochloric acid solution
								O=P([O-])([O-])[O-].[Na+].[Na+].[Na+] [Na3 PO4, trisodium phosphate]		apo(a) concentration read off after alkaline pretreatment (apo(a); 0.2 M pretreating solution, 1 h): 354 U/l
10.0	9.6	5.4	5.3	3.6	3.8	3.2	3.1	NC(N)=O [UREA, Urea]		

SMILES	% binding of total amount of tracer added (uptake) (Lp(a); [1]) [%]	% binding of total amount of tracer added (uptake) (Lp(a); [2]) [%]	% binding of total amount of tracer added (uptake) (Lp(a); [3]) [%]	% binding of total amount of tracer added (uptake) (Lp(a); [4]) [%]	% binding of total amount of tracer added (uptake) (Lp(a); [5]) [%]	% binding of total amount of tracer added (uptake) (Lp(a); [6]) [%]	% binding of total amount of tracer added (uptake) (Lp(a); [7]) [%]	% binding of total amount of tracer added (uptake) (Lp(a); [8]) [%]	apo(a) concentration read off after acidic pretreatment (apo(a); 0.2 M pretreating solution) [U/l]	further results
CCCCCCCCCCCCOS(=O)(=O)[O-].[Na+] [SDS, sodium dodecyl sulfate]	10.1	18.8	5.3	13.3	3.6	7.0	3.0	4.5		
